According to ChEMBL document CHEMBL2016573, “Fluorescent nucleosides with 'on-off' switching function, pH-responsive fluorescent uridine derivatives” (Bioorg Med Chem Lett, 2012):

Assays:
[1] = Dissociation constant, pKa of the compound at pH < 5; assay type: physicochemical
[2] = Dissociation constant, pKa of the compound at pH 4.8 to 8.2; assay type: physicochemical
[3] = Drug uptake in human HuH7 cells assessed as localization in cytosol at 1 uM after 2 hrs by fluorescence microscopic analysis; assay type: ADME, cell-based, Huh-7
Huh-7 = assay: Cellular uptake in human HuH7 cells at 1 uM after 2 hrs by fluorescence microscopic analysis; assay type: ADME, cell-based; conditions: huh-7, 2 h

pKa [1] | pKa [2] | Drug uptake [3] | Drug uptake (Huh-7) | Structure (SMILES)
3.9 |  |  |  | Nc1ccc(C#Cc2c3ccccc3c(C#Cc3cn([C@H]4C[C@H](O)[C@@H](CO)O4)c(=O)[nH]c3=O)c3ccccc23)cc1
3.7 |  |  |  | CCC(CC)Nc1ccc(C#Cc2c3ccccc3c(C#Cc3cn([C@H]4C[C@H](O)[C@@H](CO)O4)c(=O)[nH]c3=O)c3ccccc23)cc1
3 |  |  |  | CN(C)c1ccc(C#Cc2c3ccccc3c(C#Cc3cn([C@H]4C[C@H](O)[C@@H](CO)O4)c(=O)[nH]c3=O)c3ccccc23)cc1
6.1 | 6.1 | Active |  | CC(C)(C)Nc1ccc(C#Cc2c3ccccc3c(C#Cc3cn([C@H]4C[C@H](O)[C@@H](CO)O4)c(=O)[nH]c3=O)c3ccccc23)cc1
3.7 |  |  | Not Active | CNc1ccc(C#Cc2c3ccccc3c(C#Cc3cn([C@H]4C[C@H](O)[C@@H](CO)O4)c(=O)[nH]c3=O)c3ccccc23)cc1
3.9 |  |  |  | O=c1[nH]c(=O)n([C@H]2C[C@H](O)[C@@H](CO)O2)cc1C#Cc1c2ccccc2c(C#Cc2ccc(NC3CCCCC3)cc2)c2ccccc12
3.5 |  |  |  | CCCCNc1ccc(C#Cc2c3ccccc3c(C#Cc3cn([C@H]4C[C@H](O)[C@@H](CO)O4)c(=O)[nH]c3=O)c3ccccc23)cc1
